Assay results as given in patent US12226390B2, “Cannabinoids compositions with polyunsaturated fatty acid monoglycerides, methods and uses thereof” (SCF PHARMA INC., priority 2019, dated 2025).
In brackets after ≈: the same amount, converted by molar mass.

Assays:
[1] = Comparative human absorption cross-over study of CBD in compound of formula (IV) versus MCT oil; assay type: in vivo
Procedure: 54 mg of cannabidiol (CBD) was dissolved in 2.5 g of compound of formula (IV) to give a clear solution. 1.16 g of the mixture (25 mg CBD) was encapsulated in two (2) hard gel capsules (size 00) for absorption study. A pilot absorption study was conducted in one volunteer. The two (2) hard gel capsules were swallowed with a glass of water by the volunteer fasted for 10 h. 200 ul of blood was collected by a lancet in a heparinised microtube at T=0, 1, 2, 3, 4, 5, 6, 7 and 8 h. The plasma was analyzed by HPLC/MS/MS to quantify the CBD. A comparative study was conducted with the same amount of CBD but with MCT oil (medium-chain triglycerides oil) instead of compound of formula (IV).

[2] = CBD solubility in carrier oils; assay type: physicochemical; details: for solubility: oil or lipid
[3] = 400 mg CBD in corn oil, orally administered; cited from earlier work
[4] = native acid form; cited from earlier work
[5] = stated by Health Canada; cited from earlier work
[6] = Human absorption study of composition 1 (cannabinoid extract containing CBDA in compound of formula IV and EPA fish oil); assay type: in vivo
Procedure: Cannabis dried flowers (7 g) was extracted with ethanol (100 ml) for 72 h at room temperature. The flowers was filtered and the ethanol was removed under vacuum without heating to give the cannabinoid crude extract (1.9 g) containing 85% CBDA and 4% THCA. The crude extract (315 mg) was dissolved in a mixture of compound of formula (IV) and EPA concentrated ethyl ester fish oil (3.5 g) to give composition 1.
2.47 g of composition 1 was encapsulated in four (4) hard gel capsules (size 00) for absorption study. A pilot absorption study was conducted in one volunteer. The four (4) hard gel capsules were swallowed with a glass of water by the volunteer fasted for 10 h. 200 ul of blood was collected by a lancet in a heparinised microtube at T=0, 0.5, 1, 1.5, 2, 2.5, 3, 3.5, 4, 4.5, and 6.5 h. The plasma was analyzed by HPLC/MS/MS to quantify the CBDA.

COX-2 = molecular target: T1, COX-2 (Homo sapiens, UniProt P35354); details: native acid form; cited from earlier work
T1 sequence (P35354 18-604): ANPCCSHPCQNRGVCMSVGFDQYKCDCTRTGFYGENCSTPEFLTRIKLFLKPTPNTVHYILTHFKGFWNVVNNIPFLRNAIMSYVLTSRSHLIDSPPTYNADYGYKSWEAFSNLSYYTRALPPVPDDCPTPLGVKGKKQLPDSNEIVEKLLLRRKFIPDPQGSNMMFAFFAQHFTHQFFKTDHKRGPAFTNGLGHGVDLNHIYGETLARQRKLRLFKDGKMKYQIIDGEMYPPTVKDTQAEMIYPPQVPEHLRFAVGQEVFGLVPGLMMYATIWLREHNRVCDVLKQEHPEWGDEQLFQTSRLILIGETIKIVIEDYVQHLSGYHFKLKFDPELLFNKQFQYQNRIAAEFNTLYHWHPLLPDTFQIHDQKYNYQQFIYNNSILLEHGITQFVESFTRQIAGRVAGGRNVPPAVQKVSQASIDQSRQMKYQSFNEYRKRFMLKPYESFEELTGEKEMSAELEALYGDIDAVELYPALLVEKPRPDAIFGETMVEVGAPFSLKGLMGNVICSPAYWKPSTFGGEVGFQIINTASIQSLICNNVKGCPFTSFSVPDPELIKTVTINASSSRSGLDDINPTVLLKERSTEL

Question: Which “absorption and bioavailability of CBD, compound of formula (IV) over MCT oil” value ([1]; 25 mg CBD oral in hard gel capsules, one volunteer fasted 10 h, plasma 0-8 h, FIG. 1) does the source give for `C=C(C)[C@@H]1CCC(C)=C[C@H]1c1c(O)cc(CCCCC)cc1O` [CBD, Cannabidiol] here?
Answer: superiority

Question: What about the bioavailability ([1]; human, plasma, formulated in compound of formula IV, low dose of 25 mg, oral, read-out: CBD more bioavailable than in MCT oil) of the same compound?
Answer: 200%

Question: What about the increase of solubility ([2]; formulation containing compound of formula IV and EPA fish oil versus corn oil) of the same compound?
Answer: 33%

Question: And the solubility ([2]; in a formulation containing compound of formula IV and EPA fish oil)?
Answer: 400 mg/mL (≈ 1270 mM)

Question: What about the solubility ([2]; in corn oil) of the same compound?
Answer: ~300 mg/mL (≈ 954 mM)

Question: What about the Cmax in plasma [3] of the same compound?
Answer: 181 ng/mL

Question: For `CCCCCc1cc2c(c(O)c1C(=O)O)[C@@H]1C=C(C)CC[C@H]1C(C)(C)O2` [THCA, Tetrahydrocannabinolic acid], which psychotropic effect [4] is on record?
Answer: no psychotropic effect

Question: With `CCCCCc1cc(O)c2c(c1)OC(C)(C)[C@@H]1CCC(C)=C[C@@H]21` [THC, Tetrahydrocannabinol] as the compound, how does the oral bioavailability [5] read?
Answer: 10%

Question: What does the source list for `C=C(C)[C@@H]1CCC(C)=C[C@H]1c1c(O)cc(CCCCC)c(C(=O)O)c1O` [CBDA, Cannabidiolic Acid]?
Answer: increase of the Cmax ([6]; 170 mg CBDA in compound of formula IV versus 400 mg CBD in corn oil (half of the dose)): 500%; Cmax ([6]; human, plasma, cannabinoid extract containing 170 mg of CBDA in compound of formula IV, oral, one fasted volunteer): 1000 ng/mL; COX-2 inhibition (COX-2): COX-2 inhibitor
